Measured values published in article PMC8765310, “Metabolism, Excretion, and Mass Balance of [^14C]-Rezafungin in Animals and Humans” (Antimicrobial Agents and Chemotherapy, 2022).
*1 amine or outer side, *2 acyl side, *3 side chain or, on linkers, in order; H or OH if unused. Where a SMILES comes first, the peptide text is derived from it. Bridges are numbered along the chain shown (N, C = ends). [ ]: non-standard residue; d: D form. The star is where a group is joined. Orn(4R-OH,5R-OCH2CH2NMe3+) = C[N+](C)(C)CCO[C@@H](N[*:3])[C@H](O)C[C@H](N[*:1])C(=O)[*:2]; pTerphenylCO(4''-OnC5H11) = CCCCCOc1ccc(-c2ccc(-c3ccc(C(=O)*)cc3)cc2)cc1; hTyr(3S-OH,4S-OH) = N[C@H](C(=O)O)[C@H](O)[C@@H](O)c1ccc(O)cc1; Pro(3S-OH,4S-Me) = C[C@H]1CN[C@H](C(=O)O)[C@H]1O; Hyp = O=C(O)[C@@H]1C[C@@H](O)CN1

How the values were obtained:
[1] = cited from earlier work
Description: All three of the previously approved echinocandins (caspofungin, micafungin, and anidulafungin) are believed to undergo spontaneous chemical (non-enzymatic) degradation to a ring-opened peptide as their primary clearance mechanism ([18]). […] While protein binding is generally considered a factor in evaluation of half-life, rezafungin and the ...

[2] = Rat excretion/mass balance of [14C]-rezafungin; type: in vivo, Sprague-Dawley rats; settings: LSC; for Radioactivity recovered in feces: mean
Description: (i) Rat study design. The study used 12 male Sprague-Dawley rats, each administered a bolus IV injection into the tail vein over approximately 3–4 min of 15 mg/kg of rezafungin (with a target radioactivity of 200 μCi/kg of [^14C]-rezafungin). Three of the rats were bile duct cannulated. Whole blood/plasma, urine, feces/bile, and cage washings were collected at periodic intervals from noncannulated rats until euthanization at 336 h postdose and from bile duct cannulated rats until euthanization at 120 h postdose as that was the duration that the patency of bile duct cannulae could be maintained. Carcasses were collected at the time of euthanization. All samples were analyzed for drug-derived radioactivity by liquid scintillation counting.
(§1) (iii) Sample analysis. Whole blood and fecal homogenates were combusted prior to analysis by liquid scintillation counting (LSC). Blood, plasma, bile, urine, cage rinse/wash, and fecal homogenate samples were mixed with scintillation fluid and analyzed for radioactivity by LSC. Rat carcasses were dissolved in potassium hydroxide, and the resulting digests were mixed with scintillation fluid and analyzed for radioactivity by LSC.

[3] = Monkey blood and plasma radioactivity pharmacokinetics; type: in vivo, cynomolgus monkeys
Description: (§2) (ii) Monkey study design. The study used 3 male cynomolgus monkeys, each administered a single 10 mg/kg IV dose of [^14C]-rezafungin (with a target radioactivity of 100 μCi/kg of [^14C]-rezafungin) by infusion into a saphenous vein over 20 min. Whole blood and plasma samples were collected at each of the following time points: predose, 0.5, 2, 4, 8, 24, 48, 96 120, 144, 168, 240, 480, 720, and 1440 h postdose. Urine, feces, and cage washings were collected at predose (urine/feces only) and daily 24-h collections for 30 days.
as §1

[4] = Monkey excretion/mass balance of [14C]-rezafungin; type: in vivo, cynomolgus monkeys
Description: as §2, §1

[5] = Human metabolite profiling (HPLC with radiochemical and HRMS detection); type: in vivo; settings: 400 mg IV
Description: (iv) Metabolite profiling. Plasma samples were pooled across subjects through 672 h postdose to produce inter-subject time point pools. Urine and fecal homogenate samples were pooled by subject across various time points up through 408 and 672 h postdose, respectively. Selected samples of plasma, urine, and feces were profiled for rezafungin and metabolites by HPLC with radiochemical and high-resolution mass spectrometry detection; metabolites were identified by HPLC with known standards and/or by HPLC-MS/MS structure elucidation. Pharmacokinetics were calculated by non-compartmental analysis using Phoenix WinNonlin software (version 6.3/8.1; Pharsight, Mountain View, CA).

[6] = bile duct cannulated rats, IV 15 mg/kg, until 120 h postdose, average
[7] = intact rats, IV 15 mg/kg, through 336 h postdose, average
[8] = monkeys, 10 mg/kg IV, through 720 h postdose

For CCCCCOc1ccc(-c2ccc(-c3ccc(C(=O)N[C@H]4C[C@@H](O)[C@@H](OCC[N+](C)(C)C)NC(=O)[C@@H]5[C@@H](O)[C@@H](C)CN5C(=O)[C@H]([C@@H](C)O)NC(=O)[C@H]([C@H](O)[C@@H](O)c5ccc(O)cc5)NC(=O)[C@@H]5C[C@@H](O)CN5C(=O)[C@H]([C@@H](C)O)NC4=O)cc3)cc2)cc1 [rezafungin] ({pTerphenylCO(4''-OnC5H11)}-[Orn(4R-OH,5R-OCH2CH2NMe3+)]T[Hyp][hTyr(3S-OH,4S-OH)]T[Pro(3S-OH,4S-Me)]; lactam 1-C), which Protein binding [1] is on record?
The Protein binding was 97.4%.

What about the “Radioactivity recovered in feces” value ([2]; bile duct cannulated rats (n = 3), single IV 15 mg/kg, until 120 h postdose) of the same molecule?
Its value is 35 % of the administered dose.

What about the “Radioactivity recovered in the carcass” value ([2]; bile duct cannulated rats, IV 15 mg/kg, euthanized at 120 h postdose, average) of the same molecule?
The value was 30 % of the administered dose.

And the “Average total recovery of radioactivity” value ([2]; bile duct cannulated rats, IV 15 mg/kg, until 120 h postdose)?
Its value is 98 % of the administered dose.

What about the “Radioactivity recovered in bile” value [2, 6] of the same molecule?
Its value is 17 % of the administered dose.

And the “Radioactivity recovered in cage residues” value [2, 6]?
The value was 1.2 % of the administered dose.

What about the “Radioactivity recovered in feces” value ([2]; intact (non-bile duct cannulated) male rats, single IV bolus 15 mg/kg (200 μCi/kg), through 336 h postdose) of the same molecule?
The value was 70 % of the administered dose.

What about the “Radioactivity recovered in the carcass” value ([2]; intact rats, IV 15 mg/kg, at 336 h postdose, average) of the same molecule?
Its value is 7.9 % of the administered dose.

And the “Radioactivity recovered in cage residues” value [2, 7]?
The value was 2.5 % of the administered dose.

What about the “Radioactivity recovered in urine” value [2, 7] of the same molecule?
Its value is 14 % of the administered dose.

What about the “t1/2 of plasma total radioactivity” value ([3]; monkey, IV [14C]-rezafungin 10 mg/kg, mean plasma concentrations) of the same molecule?
Its value is 170 h.

What about the “Ratio of blood-to-plasma AUC (radioactivity)” value ([3]; monkeys, 10 mg/kg IV) of the same molecule?
Its value is “approximately 1”.

And the “Time of maximum blood and plasma radioactivity concentrations” value ([3]; monkeys, single IV 20-min infusion 10 mg/kg, first postdose sample)?
Its value is 0.5 h.

And the “Average total recovery of radioactivity” value ([4]; 3 male monkeys, single 10 mg/kg IV 20-min infusion (100 μCi/kg), at 168 h (1 week) postdose, LSC)?
Its value is 47.02 % of the dose.

What about the “Radioactivity recovered in feces” value ([4]; monkeys, 10 mg/kg IV, at 720 h postdose) of the same molecule?
Its value is 60 % of the administered dose.

And the “Mean total recovery of radioactivity” value ([4]; monkeys, 10 mg/kg IV, through 360 h postdose)?
Its value is 65 % of the dose.

What about the “Radioactivity recovered in cage residue” value [4, 8] of the same molecule?
Its value is 4.3 % of the administered dose.

What about the “Radioactivity recovered in urine” value [4, 8] of the same molecule?
Its value is 9.7 % of the administered dose.

And the “Share of total recovered radioactivity in feces” value ([5]; human feces pooled by subject through 672 h postdose)?
The value was 90%.

What about the “Share of total plasma radioactivity exposure” value ([5]; human plasma pooled across subjects through 672 h postdose, HPLC radio/HRMS) of the same molecule?
Its value is 69%.

What about the “Share of total recovered radioactivity in urine” value ([5]; human urine pooled by subject through 408 h postdose) of the same molecule?
Its value is “negligible”.
